Results from article PMC5487955, “Microarray Selection of Cooperative Peptides for Modulating Enzyme Activities” (Microarrays, 2017).
Where “and” joins values, the source holds several entries; their conditions need not be identical. Equal entries are not always repeated. Where no end group is shown, it is not given here.

Key:
β-galactosidase (β-Gal) [1] = target: T1, β-galactosidase (β-Gal) (Escherichia coli, UniProt P00722); assay: biochemical; parameters: purchased Sigma (St. Louis, MO, USA); conditions: for reduction of enzyme activity, combination with PEP-1: 100 μM NEW peptide + 2 μM PEP-1; for reduction of enzyme activity, NEW peptide alone: 100 μM peptide by itself, pH 7.4 10 mM potassium phosphate, 100 μM MgCl2, 25 °C, at least three replicates
Experimental: Solution-based enzyme assays were performed on SpectraMax M5 96 well plate readers (Molecular Device, Sunnyvale, CA, USA) as described previously. Simply explained, peptides were first incubated with enzyme for 20 min, and then the substrate solution was added into the wells to measure the enzyme activity. At least three replicates per peptide were included. The β-gal-catalyzed hydrolysis of RBG was fluorescently monitored at 590 nm (resorufin) with the excitation at 540 nm. For a typical assay, ~0.3 nM or 1 nM β-Gal was incubated with peptides and 100 μM RBG substrate in pH 7.4, 10 mM potassium phosphate buffer with 100 μM MgCl2 at 25 °C. The reaction rate was determined by the initial velocity of the linear reaction. The percentage of reduced/inhibited enzyme activity was calculated as below: Percentage of reduced activity=(1−Inhibited activity/Noninhibited activity)×100% […]
Figure S1. Titration of IC 50 for PEP-1. The IC 50 of peptide inhibition is measured at a substrate concentration of 100 μM RBG (resorufin β -D-galactopyranoside) and β-Gal concentration of 150 μg/L, 25 °C. All tests included three replicates. Error bar: range of data.
The IC50 of each inhibitor was determined by fitting the concentration vs. inhibition curve to the function ‘Fit LogIC50’ as defined in the program GraphPad Prism 7 using the fitting equation “Y=Bottom+(Top-Bottom)/(1+10^(X-LogIC50))”. The “Bottom” term was constrained to 1, which represents the maximal inhibition of 100%. The “Top” term was constrained to 0, which represents the minimal inhibition of 0%.
The enzyme inhibition was also quantitatively characterized using the inhibition percentage that was calculated using the following equation:
Inhibition Percentage = (Activity uninhibited – Activity inhibited)/ Activity uninhibited × 100%
(1 picture or pasted object on this page, not shown here)

[2] = test system: crosslinked PEP-1–β-Gal complex; assay: Peptide microarray binding of crosslinked PEP-1–β-Gal complex; conditions: negative control selection
Experimental: Firstly, 20 μM PEP-1 (sequence of “RVFKRKRWLHVSRYYFGSC”) was incubated with 30 nM β-Gal for 20 min, and then 0.5% formaldehyde was added to the peptide/enzyme mixture. It was then incubated for another 20 min in order to crosslink the peptide with enzyme. The entire mixture was then diluted by 100 × in phosphate buffer to bring the overall peptide concentration as low as 200 nM.

[3] = test system: inhibited PEP-1–β-Gal complex; assay: Recovery of PEP-1 inhibited enzyme activity; type: biochemical; conditions: 320 μM NEG added, incubated another 20 min; 1 nM β-Gal preincubated with PEP-1 for 20 min
Experimental: Solution-based enzyme assays were performed on SpectraMax M5 96 well plate readers (Molecular Device, Sunnyvale, CA, USA) as described previously. Simply explained, peptides were first incubated with enzyme for 20 min, and then the substrate solution was added into the wells to measure the enzyme activity. At least three replicates per peptide were included. The β-gal-catalyzed hydrolysis of RBG was fluorescently monitored at 590 nm (resorufin) with the excitation at 540 nm. For a typical assay, ~0.3 nM or 1 nM β-Gal was incubated with peptides and 100 μM RBG substrate in pH 7.4, 10 mM potassium phosphate buffer with 100 μM MgCl2 at 25 °C. The reaction rate was determined by the initial velocity of the linear reaction. The percentage of reduced/inhibited enzyme activity was calculated as below: Percentage of reduced activity=(1−Inhibited activity/Noninhibited activity)×100%
For recovery of PEP-1 inhibited enzyme activity, 1 nM β-Gal was first incubated with PEP-1 for 20 min for inhibiting activity, and then NEG peptide was added to the solution and incubated for another 20 min before the activity assay.

β-galactosidase (β-Gal) [4] = target: T1, β-galactosidase (β-Gal); conditions: negative control selection
Description: Microarrays of 10,000 20-mer peptides were produced by Arizona State University as previously reported [14, 17]. […] Each polypeptide was 20 residues in length, with 17 positions randomly chosen from a set of 19 amino acids (excluding cysteine). The C-terminal 3 positions of each peptide was a glycine–serine–cysteine (GSC) linker, which was used for conjugating peptides to amino-silane surfaces via a maleimide linker, sulfosuccinimidyl 4-(N-maleimidomethyl)cyclohexane-1-carboxylate (Sulfo-SMCC; Pierce, Rockford, IL, USA). The array printing was performed by using a Telechem Nanoprint60 (Arrayit, Sunnyvale, CA, USA) hat spotted approximately 500 pL of 1 mg/mL peptide per feature on glass slides with 48 Telechem series SMP2-style 946 titanium pins (Arrayit).
Binding of enzymes on the microarray was performed as previously described [17, 18]. […] Then, the array was incubated with a solution containing 5 nM Alexa 647-labeled β-Gal or PEP-1–β-Gal complex for two hours, allowing the enzyme to bind with peptides on the array surface. After washing off unbound enzymes, the array was read by a standard array reader (PerkinElmer, Waltham, MA, USA) with color scanning using 647 nm laser lines.

[5] = 100 μM RBG, pH 7.4, 25 °C, 20 min preincubation
[6] = 100 μM RBG, 20 min preincubation

T1 sequence (P00722 2-1024): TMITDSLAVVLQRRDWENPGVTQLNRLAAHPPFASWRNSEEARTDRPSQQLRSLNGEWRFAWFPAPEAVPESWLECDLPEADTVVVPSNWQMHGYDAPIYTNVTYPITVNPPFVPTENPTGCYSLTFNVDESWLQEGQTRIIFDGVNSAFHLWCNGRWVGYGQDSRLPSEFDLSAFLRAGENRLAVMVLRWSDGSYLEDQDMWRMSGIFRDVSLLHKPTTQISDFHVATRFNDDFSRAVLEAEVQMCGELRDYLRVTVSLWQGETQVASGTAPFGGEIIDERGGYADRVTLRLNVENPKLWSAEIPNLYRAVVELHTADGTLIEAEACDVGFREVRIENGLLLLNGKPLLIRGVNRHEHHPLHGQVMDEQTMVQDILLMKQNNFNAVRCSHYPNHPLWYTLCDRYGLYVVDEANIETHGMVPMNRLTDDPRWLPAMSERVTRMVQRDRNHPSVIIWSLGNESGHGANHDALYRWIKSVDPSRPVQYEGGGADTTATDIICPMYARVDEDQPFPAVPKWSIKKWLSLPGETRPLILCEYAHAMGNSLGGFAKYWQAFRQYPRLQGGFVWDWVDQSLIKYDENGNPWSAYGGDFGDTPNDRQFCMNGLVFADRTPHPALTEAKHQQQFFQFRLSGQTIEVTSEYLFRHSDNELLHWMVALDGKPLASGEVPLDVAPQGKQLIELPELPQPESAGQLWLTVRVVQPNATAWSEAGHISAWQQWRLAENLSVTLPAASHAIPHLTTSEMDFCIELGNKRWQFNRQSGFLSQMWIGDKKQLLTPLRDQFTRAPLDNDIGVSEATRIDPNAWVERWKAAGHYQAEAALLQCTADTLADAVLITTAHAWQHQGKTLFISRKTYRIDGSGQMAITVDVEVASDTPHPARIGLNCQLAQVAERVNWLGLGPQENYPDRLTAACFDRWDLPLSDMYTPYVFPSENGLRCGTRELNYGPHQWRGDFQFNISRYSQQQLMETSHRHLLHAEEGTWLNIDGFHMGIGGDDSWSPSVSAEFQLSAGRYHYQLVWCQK

Sequence	reduction of enzyme activity, combination with PEP-1 (β-galactosidase (β-Gal) [1]; [5])	reduction of enzyme activity, NEW peptide alone (β-galactosidase (β-Gal) [1]; [6])	further results
MHNHAFNDNHGRGPTAWGSC [NEW-4]	91%	~ 26%	
ESVPTDLPMDTMEGKNWGSC [NEG, negatively-charged negative control peptide]			binding to crosslinked PEP-1–β-gal complex on microarray (in words) [2]: did not show strong binding; activity of inhibited PEP-1–β-Gal complex, % of uninhibited enzyme [3]: ~45%; binding to β-Gal on microarray (in words) (β-galactosidase (β-Gal) [4]): neither bound to β-Gal; inhibition of β-Gal activity, NEG combined with PEP-1 (β-galactosidase (β-Gal) [1]; 10 μM NEG + 2 μM PEP-1): 24%; inhibition of β-Gal, NEG combined with PEP-1 (in words) (β-galactosidase (β-Gal) [1]; 100 μM NEG + 2 μM PEP-1): almost lost the ability to inhibit β-Gal
RVFKRKRWLHVSRYYFGSC [PEP-1]			IC50 (β-galactosidase (β-Gal) [1]): ~1600 nM; reduction of enzyme activity, PEP-1 by itself (β-galactosidase (β-Gal) [1]; 2 μM PEP-1 alone, 100 μM RBG, pH 7.4, 25 °C, 20 min preincubation): ~ 57% and 57%
HISPQHMMAYSPKAFDYGSC [NEW-2]	~ 73%	~ 12%	
YDTLHRNRQMMDWQFEPGSC [NEW-3]	~ 86%	~ 19%	
GVSHLHWIKMLNETTVMGSC [NEW-1]	~ 70%	less than 10%	
